Test results taken from ChEMBL document CHEMBL1150989, “Identification and characterisation of an inhibitor of interleukin-8: a receptor based approach” (Bioorg Med Chem Lett, 1996).
Where a SMILES comes first, the peptide text is derived from it. [ ]: non-standard residue; d: D form. Abu = CC[C@H](N)C(=O)O

What follows are compounds tested against T1, Interleukin-8 receptors, CXCR1/CXCR2 (Homo sapiens, UniProt P25025+P25024) (assay: Inhibitory activity against interleukin-8 receptor using [125I]IL8).
T1 sequence (P25025 whole entry): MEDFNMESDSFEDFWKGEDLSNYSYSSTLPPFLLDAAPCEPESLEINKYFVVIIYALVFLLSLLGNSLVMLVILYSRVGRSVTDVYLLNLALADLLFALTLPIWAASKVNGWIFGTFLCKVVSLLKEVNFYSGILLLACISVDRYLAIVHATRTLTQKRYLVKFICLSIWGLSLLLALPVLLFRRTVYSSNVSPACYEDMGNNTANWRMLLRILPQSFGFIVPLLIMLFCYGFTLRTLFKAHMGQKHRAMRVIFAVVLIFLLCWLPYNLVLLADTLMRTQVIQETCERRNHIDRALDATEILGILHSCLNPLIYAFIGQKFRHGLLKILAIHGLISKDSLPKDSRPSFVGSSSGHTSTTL
T1 sequence (P25024 whole entry): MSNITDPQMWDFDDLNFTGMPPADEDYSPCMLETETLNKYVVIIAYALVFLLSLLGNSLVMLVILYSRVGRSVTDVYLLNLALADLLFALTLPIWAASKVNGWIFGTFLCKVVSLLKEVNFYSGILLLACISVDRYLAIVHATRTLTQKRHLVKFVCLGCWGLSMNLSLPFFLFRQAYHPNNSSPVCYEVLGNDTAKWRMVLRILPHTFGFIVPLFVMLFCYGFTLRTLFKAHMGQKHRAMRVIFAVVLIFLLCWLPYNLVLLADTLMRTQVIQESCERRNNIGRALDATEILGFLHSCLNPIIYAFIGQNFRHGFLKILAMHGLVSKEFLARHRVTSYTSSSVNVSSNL
Type: protein assay

Ac-MSNITDPQMWDFDDLNFTG-NH2 was tested, and the Ki was over 30 µM.
Work on `CC[C@H](NC(=O)[C@@H](NC(C)=O)C(C)C)C(=O)N[C@@H](Cc1ccc(O)cc1)C(=O)N[C@@H](CCC(=O)O)C(=O)N[C@H](C(=O)N[C@@H](CC(C)C)C(=O)NCC(=O)N[C@@H](CC(N)=O)C(=O)N[C@@H](CC(=O)O)C(=O)N[C@H](C(=O)N[C@@H](C)C(=O)N[C@@H](CCCCN)C(=O)N[C@@H](Cc1c[nH]c2ccccc12)C(=O)N[C@@H](CCCN=C(N)N)C(=O)N[C@@H](CCSC)C(=O)N[C@H](C(=O)N[C@@H](CC(C)C)C(=O)N[C@@H](CCCN=C(N)N)C(=O)N[C@H](C(N)=O)[C@@H](C)CC)C(C)C)[C@@H](C)O)C(C)C` (Ac-V[Abu]YEVLGNDTAKWRMVLRI-NH2) yielded a Ki of over 1 µM.
In the case of Ac-ADTLMRTQVIQETAERRNNIGRALDATEI-NH2, the Ki is reported as over 1 µM.
`CC[C@H](NC(=O)[C@H](CC(C)C)NC(=O)[C@H](Cc1ccccc1)NC(=O)[C@@H](NC(=O)CNC(=O)[C@H](Cc1ccccc1)NC(=O)[C@@H](NC(=O)[C@H](Cc1c[nH]c2ccccc12)NC(=O)CNC(=O)[C@H](CC(N)=O)NC(=O)[C@@H](NC(C)=O)C(C)C)[C@@H](C)CC)[C@@H](C)O)C(=O)N[C@@H](CCCCN)C(=O)N[C@H](C(N)=O)C(C)C` (Ac-VNGWIFGTFL[Abu]KV-NH2) was tested, and the Ki was over 30 µM.

Point of comparison: Ac-MWDFDDLNFTGMPPADEDYSP-NH2, Ki 13 µM. Against it:
- Ac-MWDFDDLNFTGMPPADEDYAP-NH2 — within 1.5-fold, 15 µM
- Ac-MWDFDDLNFTGMPPADEAYSP-NH2 — 3.2-fold higher, 42 µM
- Ac-MWDFDDANFTGMPPADEDYSP-NH2 — 4.7-fold higher, 61 µM
- Ac-MWDFDDLNFAGMPPADEDYSP-NH2 — 2.6-fold lower, 5 µM
- Ac-MADFDDLNFTGMPPADEDYSP-NH2 — 4.2-fold higher, 55 µM
- Ac-MWAFDDLNFTGMPPADEDYSP-NH2 — 2.2-fold higher, 28 µM
- Ac-FTGMPPADEDYSP-NH2 — 140-fold higher, 1850 µM
- Ac-FDDLNFTGMPPADEDYSP-NH2 — 9.2-fold higher, 120 µM
- Ac-MWDFDDLNFTGMAPADEDYSP-NH2 — 31-fold higher, 400 µM
- Ac-MWDFDDLNFTGAPPADEDYSP-NH2 — within 1.5-fold, 14 µM
- Ac-MWDADDLNFTGMPPADEDYSP-NH2 — 3.8-fold higher, 49 µM
- Ac-MWDFADLNFTGMPPADEDYSP-NH2 — 2.5-fold higher, 32 µM
- Ac-MWDFDDLNATGMPPADEDYSP-NH2 — 8.2-fold higher, 107 µM
- Ac-MWDFDDLNFTGMPPADADYSP-NH2 — 2.2-fold higher, 29 µM
- Ac-MWDFDDLNFTGMPPADEDYSA-NH2 — 12-fold higher, 155 µM
- Ac-LNFTGMPPADEDYSP-NH2 — 240-fold higher, 3100 µM
- Ac-FRQAYHPNNSSP-NH2 — within 1.5-fold, 10 µM
- CSCC[C@H](NC(C)=O)C(=O)N1CCC[C@H]1C(=O)N1CCC[C@H]1C(=O)N[C@@H](C)C(=O)N[C@@H](CC(=O)O)C(=O)N[C@@H](CCC(=O)O)C(=O)N[C@@H](CC(=O)O)C(=O)N[C@@H](Cc1ccc(O)cc1)C(=O)N[C@@H](CO)C(=O)N1CCC[C@H]1C(N)=O (stereo in doubt; form 2) — 130-fold higher, 1700 µM
- Ac-MWDFDDLNFTGMPPAAEDYSP-NH2 — 4.2-fold higher, 55 µM
- Ac-DDLNFTGMPPADEDYSP-NH2 — 15-fold higher, 190 µM
- Ac-MWDFDDLNFTGMPPADEDASP-NH2 — 20-fold higher, 265 µM
- Ac-DLNFTGMPPADEDYSP-NH2 — 58-fold higher, 750 µM
- Ac-DFDDLNFTGMPPADEDYSP-NH2 — 5.2-fold higher, 68 µM
- Ac-AWDFDDLNFTGMPPADEDYSP-NH2 — 1.8-fold higher, 23 µM
- Ac-MWDFDDLAFTGMPPADEDYSP-NH2 — 3.2-fold higher, 42 µM
- Ac-WDFDDLNFTGMPPADEDYSP-NH2 — 2.1-fold higher, 27 µM
- Ac-TGMPPADEDYSP-NH2 — 160-fold higher, 2050 µM
- Ac-GMPPADEDYSP-NH2 — 68-fold higher, 890 µM
- Ac-MWDFDDLNFTGMPAADEDYSP-NH2 — 2.1-fold higher, 27 µM
- Ac-MWDFDALNFTGMPPADEDYSP-NH2 — 4.8-fold higher, 62 µM
- CC[C@H](NC(=O)[C@@H]1CCCN1C(=O)[C@H](CO)NC(=O)[C@H](Cc1ccc(O)cc1)NC(=O)[C@H](CC(=O)O)NC(=O)[C@H](CCC(=O)O)NC(=O)[C@H](CC(=O)O)NC(=O)[C@H](C)NC(=O)[C@@H]1CCCN1C(=O)[C@@H]1CCCN1C(=O)[C@H](CCSC)NC(C)=O)C(=O)N[C@@H](CCSC)C(=O)N[C@@H](CC(C)C)C(=O)N[C@@H](CCC(=O)O)C(=O)N[C@H](C(=O)N[C@@H](CCC(=O)O)C(=O)N[C@H](C(=O)N[C@@H](CC(C)C)C(=O)N[C@@H](CC(N)=O)C(=O)N[C@@H](CCCCN)C(=O)N[C@@H](Cc1ccc(O)cc1)C(N)=O)[C@@H](C)O)[C@@H](C)O (Ac-MPPADEDYSP[Abu]MLETETLNKY-NH2) — 43-fold lower, 0.3 µM
- Ac-NFTGMPPADEDYSP-NH2 — 210-fold higher, 2700 µM
- CSCC[C@H](NC(C)=O)C(=O)N1CCC[C@H]1C(=O)N1CCC[C@H]1C(=O)N[C@@H](C)C(=O)N[C@@H](CC(=O)O)C(=O)N[C@@H](CCC(=O)O)C(=O)N[C@@H](CC(=O)O)C(=O)N[C@@H](Cc1ccc(O)cc1)C(=O)N[C@@H](CO)C(=O)N1CCC[C@H]1C(N)=O (stereo in doubt; form 1) — 7.6-fold lower, 1.7 µM

What follows are compounds tested against T1, Interleukin-8 receptors, CXCR1/CXCR2 (assay: Compound was tested for inhibitory activity against Interleukin-8 receptor).
Type: protein assay

Compound Ac-MWDFDDLNFTGMPPADEDYSP-NH2 has an IC50 of 19 µM.
